Laboratory results published in ChEMBL document CHEMBL4507270 (2021).

Assays:
[1] = target: Serine/threonine-protein kinase SIK3 (Homo sapiens) (UniProt Q9Y2K2)
[2] = target: Dual specificity tyrosine-phosphorylation-regulated kinase 1A (Homo sapiens) (UniProt Q13627)
[3] = target: Epithelial discoidin domain-containing receptor 1 (Homo sapiens, UniProt Q08345)
[4] = target: Wee1-like protein kinase (Homo sapiens) (UniProt P30291)
[5] = target: Muscarinic acetylcholine receptor M5 (Homo sapiens) (UniProt P08912); settings: Compound concentration 10.0 uM
[6] = target: Alpha-2B adrenergic receptor (Homo sapiens) (UniProt P18089); settings: Compound concentration 10.0 uM
Chain of Alpha-2B adrenergic receptor (Homo sapiens) (P18089 whole entry): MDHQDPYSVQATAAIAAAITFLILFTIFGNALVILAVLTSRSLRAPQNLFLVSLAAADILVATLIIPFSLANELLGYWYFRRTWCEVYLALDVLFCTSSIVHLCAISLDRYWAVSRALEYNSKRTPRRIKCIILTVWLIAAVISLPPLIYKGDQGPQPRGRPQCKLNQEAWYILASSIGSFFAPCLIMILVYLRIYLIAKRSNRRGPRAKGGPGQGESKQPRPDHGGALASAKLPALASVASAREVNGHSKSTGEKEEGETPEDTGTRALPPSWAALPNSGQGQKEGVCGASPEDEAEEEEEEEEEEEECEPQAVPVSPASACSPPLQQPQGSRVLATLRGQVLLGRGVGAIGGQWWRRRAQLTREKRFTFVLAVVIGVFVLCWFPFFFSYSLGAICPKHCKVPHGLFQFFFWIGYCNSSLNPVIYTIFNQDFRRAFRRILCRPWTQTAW

[7] = target: Serine/threonine-protein kinase pim-1 (Homo sapiens) (UniProt P11309)
[8] = target: STE20/SPS1-related proline-alanine-rich protein kinase (Homo sapiens) (UniProt Q9UEW8)
[9] = target: Mitogen-activated protein kinase 15 (Homo sapiens) (UniProt Q8TD08)
[10] = target: Serine/threonine-protein kinase ULK3 (Homo sapiens) (UniProt Q6PHR2)
[11] = target: Inhibitor of nuclear factor kappa-B kinase subunit alpha (Homo sapiens) (UniProt O15111)
[12] = system: Epidermal growth factor receptor (Homo sapiens), P00533 [UNDEFINED MUTATION]
[13] = target: Serine/threonine-protein kinase mTOR (Homo sapiens) (UniProt P42345)
[14] = target: Serine/threonine-protein kinase haspin (Homo sapiens) (UniProt Q8TF76)
[15] = target: Tyrosine-protein kinase JAK1 (Homo sapiens) (UniProt P23458)
[16] = target: cAMP-dependent protein kinase catalytic subunit beta (Homo sapiens) (UniProt P22694)
[17] = target: Ephrin type-A receptor 8 (Homo sapiens) (UniProt P29322)
Chain of Ephrin type-A receptor 8 (Homo sapiens) (P29322 whole entry): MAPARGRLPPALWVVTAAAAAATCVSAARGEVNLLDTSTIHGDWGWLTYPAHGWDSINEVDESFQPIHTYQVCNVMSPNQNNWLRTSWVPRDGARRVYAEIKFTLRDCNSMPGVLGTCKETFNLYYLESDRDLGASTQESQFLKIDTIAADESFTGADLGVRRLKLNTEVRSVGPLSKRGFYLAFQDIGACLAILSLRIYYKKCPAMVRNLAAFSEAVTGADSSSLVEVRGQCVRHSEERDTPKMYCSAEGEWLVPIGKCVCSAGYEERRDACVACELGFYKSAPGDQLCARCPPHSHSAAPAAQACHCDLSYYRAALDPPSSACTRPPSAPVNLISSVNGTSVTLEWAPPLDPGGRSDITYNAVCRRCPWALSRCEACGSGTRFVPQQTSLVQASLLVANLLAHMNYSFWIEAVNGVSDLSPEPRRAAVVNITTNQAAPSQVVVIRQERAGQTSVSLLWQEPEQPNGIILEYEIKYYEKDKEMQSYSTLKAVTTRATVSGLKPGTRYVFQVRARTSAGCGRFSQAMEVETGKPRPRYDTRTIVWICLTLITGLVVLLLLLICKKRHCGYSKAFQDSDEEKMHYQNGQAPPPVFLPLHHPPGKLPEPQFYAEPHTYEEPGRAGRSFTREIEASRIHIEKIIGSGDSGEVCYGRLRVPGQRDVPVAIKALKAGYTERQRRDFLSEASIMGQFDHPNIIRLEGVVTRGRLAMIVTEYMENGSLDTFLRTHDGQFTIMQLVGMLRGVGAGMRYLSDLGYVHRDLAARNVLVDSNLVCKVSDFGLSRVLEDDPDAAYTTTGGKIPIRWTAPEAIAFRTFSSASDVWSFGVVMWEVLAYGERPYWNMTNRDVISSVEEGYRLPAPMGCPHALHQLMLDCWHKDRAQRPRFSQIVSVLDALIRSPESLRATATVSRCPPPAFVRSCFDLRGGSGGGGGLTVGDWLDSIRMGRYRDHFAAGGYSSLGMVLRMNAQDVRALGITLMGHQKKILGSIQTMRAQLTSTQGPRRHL

[18] = target: Ephrin type-B receptor 1 (Homo sapiens) (UniProt P54762)
[19] = target: Vascular endothelial growth factor receptor 2 (Homo sapiens, UniProt P35968)
[20] = target: G protein-coupled receptor kinase 4 (Homo sapiens) (UniProt P32298)
[21] = target: SRSF protein kinase 1 (Homo sapiens) (UniProt Q96SB4)
[22] = target: Tyrosine-protein kinase Tec (Homo sapiens) (UniProt P42680)
Chain of Tyrosine-protein kinase Tec (Homo sapiens) (P42680 whole entry): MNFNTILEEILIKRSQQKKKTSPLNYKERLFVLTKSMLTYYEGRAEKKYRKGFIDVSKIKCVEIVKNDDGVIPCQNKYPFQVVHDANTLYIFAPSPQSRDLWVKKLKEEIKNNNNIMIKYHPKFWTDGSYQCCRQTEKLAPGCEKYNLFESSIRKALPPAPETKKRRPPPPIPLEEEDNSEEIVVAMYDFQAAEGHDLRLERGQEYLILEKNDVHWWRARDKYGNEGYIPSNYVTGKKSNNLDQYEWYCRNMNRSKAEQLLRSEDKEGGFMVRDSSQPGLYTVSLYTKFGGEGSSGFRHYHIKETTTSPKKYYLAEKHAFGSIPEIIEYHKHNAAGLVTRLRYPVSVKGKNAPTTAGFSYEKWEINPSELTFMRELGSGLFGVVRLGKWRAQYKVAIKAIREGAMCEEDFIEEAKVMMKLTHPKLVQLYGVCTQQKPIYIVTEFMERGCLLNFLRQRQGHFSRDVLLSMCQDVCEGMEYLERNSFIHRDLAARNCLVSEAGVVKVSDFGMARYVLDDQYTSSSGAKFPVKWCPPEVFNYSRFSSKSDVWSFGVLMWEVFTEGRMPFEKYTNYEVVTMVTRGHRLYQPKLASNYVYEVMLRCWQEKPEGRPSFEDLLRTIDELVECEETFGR

[23] = target: Mitogen-activated protein kinase kinase kinase kinase 3 (Homo sapiens) (UniProt Q8IVH8)
Chain of Mitogen-activated protein kinase kinase kinase kinase 3 (Homo sapiens) (Q8IVH8 whole entry): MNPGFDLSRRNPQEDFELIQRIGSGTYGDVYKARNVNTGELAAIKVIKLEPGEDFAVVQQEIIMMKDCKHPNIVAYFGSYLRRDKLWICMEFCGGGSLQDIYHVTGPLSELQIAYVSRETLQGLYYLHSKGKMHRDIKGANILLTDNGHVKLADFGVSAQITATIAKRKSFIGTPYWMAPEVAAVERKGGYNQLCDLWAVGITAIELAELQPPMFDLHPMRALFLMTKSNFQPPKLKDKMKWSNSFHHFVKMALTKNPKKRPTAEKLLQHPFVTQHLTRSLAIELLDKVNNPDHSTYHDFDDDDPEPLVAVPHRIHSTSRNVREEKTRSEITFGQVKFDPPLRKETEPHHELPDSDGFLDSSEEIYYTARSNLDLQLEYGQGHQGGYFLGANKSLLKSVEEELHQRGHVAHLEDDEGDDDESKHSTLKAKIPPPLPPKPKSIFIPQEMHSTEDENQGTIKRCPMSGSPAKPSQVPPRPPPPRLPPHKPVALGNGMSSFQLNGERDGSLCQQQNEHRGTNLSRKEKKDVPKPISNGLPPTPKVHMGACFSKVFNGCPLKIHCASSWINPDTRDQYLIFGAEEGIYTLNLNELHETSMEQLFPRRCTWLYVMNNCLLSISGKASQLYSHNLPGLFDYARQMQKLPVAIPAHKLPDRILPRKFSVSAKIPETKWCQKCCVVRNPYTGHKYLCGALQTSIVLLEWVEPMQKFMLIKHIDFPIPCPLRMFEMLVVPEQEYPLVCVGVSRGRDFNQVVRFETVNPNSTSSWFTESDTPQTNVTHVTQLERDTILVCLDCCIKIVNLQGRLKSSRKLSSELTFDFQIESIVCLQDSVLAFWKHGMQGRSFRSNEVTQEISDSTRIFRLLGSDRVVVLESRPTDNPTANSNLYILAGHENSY

[24] = system: Tyrosine-protein kinase ABL1 (Homo sapiens), P00519 [H396P]
[25] = target: Cyclin-dependent kinase 2 homolog (Plasmodium falciparum (isolate 3D7)) (UniProt P61075)
[26] = system: Tyrosine-protein kinase ABL1 (Homo sapiens), P00519 [H396P]; remark: listed apart in the source
[27] = target: Tyrosine-protein kinase JAK3 (Homo sapiens) (UniProt P52333)
[28] = system: Proto-oncogene tyrosine-protein kinase receptor Ret (Homo sapiens), P07949 [V804M]
[29] = system: Leucine-rich repeat serine/threonine-protein kinase 2 (Homo sapiens), Q5S007 [G2019S]
[30] = target: Serine/threonine-protein kinase RIO3 (Homo sapiens) (UniProt O14730)
[31] = target: Serine/threonine-protein kinase PAK 5 (Homo sapiens) (UniProt Q9P286)
[32] = target: Mast/stem cell growth factor receptor Kit (Homo sapiens) (UniProt P10721)
[33] = target: Dual specificity tyrosine-phosphorylation-regulated kinase 2 (Homo sapiens) (UniProt Q92630)
[34] = target: Serine/threonine-protein kinase tousled-like 1 (Homo sapiens) (UniProt Q9UKI8)
Chain of Serine/threonine-protein kinase tousled-like 1 (Homo sapiens) (Q9UKI8 whole entry, canonical isoform): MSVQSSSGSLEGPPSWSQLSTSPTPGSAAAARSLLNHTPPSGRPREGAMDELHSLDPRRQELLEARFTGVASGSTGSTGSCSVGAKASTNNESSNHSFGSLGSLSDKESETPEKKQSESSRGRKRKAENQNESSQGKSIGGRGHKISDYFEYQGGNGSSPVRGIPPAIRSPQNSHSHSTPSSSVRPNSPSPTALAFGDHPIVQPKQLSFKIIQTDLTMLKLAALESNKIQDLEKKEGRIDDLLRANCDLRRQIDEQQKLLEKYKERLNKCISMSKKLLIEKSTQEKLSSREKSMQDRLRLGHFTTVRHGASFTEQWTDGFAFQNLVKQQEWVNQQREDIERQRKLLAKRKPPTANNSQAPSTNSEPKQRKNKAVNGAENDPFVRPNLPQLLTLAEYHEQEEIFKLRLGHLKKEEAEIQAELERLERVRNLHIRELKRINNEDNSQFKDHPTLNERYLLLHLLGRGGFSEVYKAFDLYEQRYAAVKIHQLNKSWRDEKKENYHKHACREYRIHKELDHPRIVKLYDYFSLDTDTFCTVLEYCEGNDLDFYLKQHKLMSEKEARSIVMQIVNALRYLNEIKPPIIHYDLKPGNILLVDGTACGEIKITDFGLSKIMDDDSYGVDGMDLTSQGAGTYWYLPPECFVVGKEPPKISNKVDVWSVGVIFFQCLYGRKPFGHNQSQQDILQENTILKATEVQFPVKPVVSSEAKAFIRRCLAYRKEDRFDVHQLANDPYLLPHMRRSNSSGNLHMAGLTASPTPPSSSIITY

[35] = target: Phosphatidylinositol 4,5-bisphosphate 3-kinase catalytic subunit gamma isoform (Homo sapiens) (UniProt P48736)
[36] = target: Serine/threonine-protein kinase ICK (Homo sapiens) (UniProt Q9UPZ9)
Chain of Serine/threonine-protein kinase ICK (Homo sapiens) (Q9UPZ9 whole entry): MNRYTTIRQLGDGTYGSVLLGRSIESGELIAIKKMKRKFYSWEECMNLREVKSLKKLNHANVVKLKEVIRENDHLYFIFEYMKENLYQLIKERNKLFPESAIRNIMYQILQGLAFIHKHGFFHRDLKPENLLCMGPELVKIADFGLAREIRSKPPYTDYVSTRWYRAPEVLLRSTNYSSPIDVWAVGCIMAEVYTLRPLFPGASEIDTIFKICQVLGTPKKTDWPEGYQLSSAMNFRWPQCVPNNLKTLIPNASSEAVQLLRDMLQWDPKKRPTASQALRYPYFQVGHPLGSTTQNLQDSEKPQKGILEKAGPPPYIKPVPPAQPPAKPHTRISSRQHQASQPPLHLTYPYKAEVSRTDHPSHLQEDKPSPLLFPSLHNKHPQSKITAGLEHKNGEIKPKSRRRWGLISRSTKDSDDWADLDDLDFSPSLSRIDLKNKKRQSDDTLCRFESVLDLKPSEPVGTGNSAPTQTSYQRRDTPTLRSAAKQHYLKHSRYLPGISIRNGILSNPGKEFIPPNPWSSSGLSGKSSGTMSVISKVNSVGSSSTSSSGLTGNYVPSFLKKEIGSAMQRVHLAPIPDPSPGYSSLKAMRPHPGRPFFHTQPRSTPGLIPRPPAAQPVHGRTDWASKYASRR

[37] = target: Serine/threonine-protein kinase 38-like (Homo sapiens) (UniProt Q9Y2H1)
[38] = target: Beta-adrenergic receptor kinase 1 (Homo sapiens) (UniProt P25098)
[39] = target: Testis-specific serine/threonine-protein kinase 3 (Homo sapiens) (UniProt Q96PN8)
[40] = target: Macrophage colony-stimulating factor 1 receptor (Homo sapiens) (UniProt P07333)
[41] = target: Activin receptor type-1-like (Homo sapiens) (UniProt P37023)
[42] = target: Homeodomain-interacting protein kinase 4 (Homo sapiens) (UniProt Q8NE63)
[43] = target: Vascular endothelial growth factor receptor 1 (Homo sapiens) (UniProt P17948)
[44] = target: Mitogen-activated protein kinase 13 (Homo sapiens) (UniProt O15264)
[45] = target: Serine/threonine-protein kinase MRCK gamma (Homo sapiens) (UniProt Q6DT37)
[46] = Compound concentration 100.0 nM
[47] = Compound concentration 1000.0 nM

Chain of Wee1-like protein kinase (Homo sapiens) (P30291 whole entry, looked up): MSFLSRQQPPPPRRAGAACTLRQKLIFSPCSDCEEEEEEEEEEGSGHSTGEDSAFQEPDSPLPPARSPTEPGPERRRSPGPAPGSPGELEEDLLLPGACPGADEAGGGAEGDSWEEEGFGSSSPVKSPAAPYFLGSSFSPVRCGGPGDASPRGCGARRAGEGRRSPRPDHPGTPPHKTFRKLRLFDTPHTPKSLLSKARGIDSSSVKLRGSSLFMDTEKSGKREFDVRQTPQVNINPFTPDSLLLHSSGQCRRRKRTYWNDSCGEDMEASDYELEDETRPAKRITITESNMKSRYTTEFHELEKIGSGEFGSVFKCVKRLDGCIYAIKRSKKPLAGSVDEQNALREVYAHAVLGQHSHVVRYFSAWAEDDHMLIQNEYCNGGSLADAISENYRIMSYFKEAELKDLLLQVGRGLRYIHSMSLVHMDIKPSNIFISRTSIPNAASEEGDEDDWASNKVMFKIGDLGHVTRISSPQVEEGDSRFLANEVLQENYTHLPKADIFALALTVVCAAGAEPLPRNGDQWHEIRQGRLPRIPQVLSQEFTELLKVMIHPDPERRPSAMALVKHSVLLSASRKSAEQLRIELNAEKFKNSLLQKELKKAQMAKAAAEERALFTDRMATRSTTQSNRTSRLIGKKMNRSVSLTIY

## Cc1cc(C)c(-n2ccn3nc(-c4cccnc4)cc23)cc1NC(=O)c1cc(C#N)cc(S(F)(F)(F)(F)F)c1 [BAY-826]
[1]; [46]
  residual activity: 75.3%
[2]; [46]
  residual activity: 82.8%
[3]; [46]
  residual activity: 0.1%
[4]; [46]
  residual activity: 100%
[5]
  inhibition: 16.1%
[6]
  inhibition: 18.1%
[7]; [46]
  residual activity: 92%
[8]; [46]
  residual activity: 64.6%
[9]; [46]
  residual activity: 94.1%
[10]; [46]
  residual activity: 100%
[11]; [46]
  residual activity: 100%
[12]; [46]
  residual activity: 88.5%
[13]; [46]
  residual activity: 70.1%
[14]; [46]
  residual activity: 64%
[15]; [46]
  residual activity: 93.1%
[16]; [46]
  residual activity: 100%
[17]; [46]
  residual activity: 83.5%
[18]; [46]
  residual activity: 100%
[19]; [46]
  residual activity: 76.2%
[20]; [46]
  residual activity: 100%
[21]; [46]
  residual activity: 67.4%
[22]; [46]
  residual activity: 88.4%
[23]; [46]
  residual activity: 89.6%
[24]; [46]
  residual activity: 69%
[25]; [46]
  residual activity: 90.9%
[26]; [46]
  residual activity: 87.5%
[27]; [46]
  residual activity: 95.3%
[28]; [46]
  residual activity: 94.5%
[29]; [46]
  residual activity: 73.9%
[30]; [46]
  residual activity: 100%
[31]; [46]
  residual activity: 83.5%
[32]; [46]
  residual activity: 76.8%
[33]; [46]
  residual activity: 82.5%
[34]; [46]
  residual activity: 89.1%
[35]; [46]
  residual activity: 98.5%
[36]; [46]
  residual activity: 74.1%
[37]; [46]
  residual activity: 98.9%
[38]; [46]
  residual activity: 91.8%
[39]; [46]
  residual activity: 76.9%
[40]; [46]
  residual activity: 85.5%
[41]; [46]
  residual activity: 78.9%
[42]; [46]
  residual activity: 95.6%
[43]; [46]
  residual activity: 91.5%
[44]; [46]
  residual activity: 65.6%
[45]; [46]
  residual activity: 88.8%

## Cc1cc(NC(=O)c2cccc(S(F)(F)(F)(F)F)c2)cc(-n2ccn3nc(-c4cccnc4)cc23)c1 [BAY-309]
[1]; [47]
  residual activity: 100%
[2]; [47]
  residual activity: 100%
[3]; [47]
  residual activity: 0%
[4]; [47]
  residual activity: 100%
[5]
  inhibition: 8.74%
[6]
  inhibition: 11.9%
[7]; [47]
  residual activity: 95.6%
[8]; [47]
  residual activity: 100%
[9]; [47]
  residual activity: 100%
[10]; [47]
  residual activity: 75.2%
[11]; [47]
  residual activity: 71.1%
[12]; [47]
  residual activity: 100%
[13]; [47]
  residual activity: 99.2%
[14]; [47]
  residual activity: 70.9%
[15]; [47]
  residual activity: 28.7%
[16]; [47]
  residual activity: 100%
[17]; [47]
  residual activity: 100%
[18]; [47]
  residual activity: 100%
[19]; [47]
  residual activity: 68.3%
[20]; [47]
  residual activity: 100%
[21]; [47]
  residual activity: 100%
[22]; [47]
  residual activity: 100%
[23]; [47]
  residual activity: 100%
[24]; [47]
  residual activity: 66.9%
[25]; [47]
  residual activity: 71.8%
[26]; [47]
  residual activity: 100%
[27]; [47]
  residual activity: 96.9%
[28]; [47]
  residual activity: 74.2%
[29]; [47]
  residual activity: 81.3%
[30]; [47]
  residual activity: 85.9%
[31]; [47]
  residual activity: 100%
[32]; [47]
  residual activity: 70.3%
[33]; [47]
  residual activity: 100%
[34]; [47]
  residual activity: 100%
[35]; [47]
  residual activity: 100%
[36]; [47]
  residual activity: 64.2%
[37]; [47]
  residual activity: 100%
[38]; [47]
  residual activity: 74.5%
[39]; [47]
  residual activity: 100%
[40]; [47]
  residual activity: 100%
[41]; [47]
  residual activity: 100%
[42]; [47]
  residual activity: 100%
[43]; [47]
  residual activity: 100%
[44]; [47]
  residual activity: 79.6%
[45]; [47]
  residual activity: 100%
